Assay results reported in PubChem BioAssay (NCI).
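In this assay, cells in 96-well plates receive the compound at five concentrations for 48 hours. Endpoints are linearly interpolated between the surrounding concentrations. Definition used: TGI = concentration required for complete inhibition of growth.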

Key:
Test in all cases: inhibition of tumour cell growth, NCI panel, 48 h
[1] = system: CCRF-CEM leukemia
[2] = system: LOX IMVI melanoma
[3] = system: MOLT-4 leukemia
[4] = system: A498 renal
[5] = system: A549 NSCLC
[6] = system: U251 CNS
[7] = system: EKVX NSCLC
[8] = system: IGROV1 ovarian
[9] = system: NCI-H23 lung
[10] = system: DLD-1 colon
[11] = system: SK-OV-3 ovarian
[12] = system: K-562 leukemia
[13] = system: UO-31 renal
[14] = system: SNB-75 CNS
[15] = system: UACC-62 melanoma
[16] = system: SN12C renal
[17] = system: HOP-62 NSCLC
[18] = system: SK-MEL-2 melanoma
[19] = system: RXF 393 renal
[20] = system: UACC-257 melanoma
[21] = system: SNB-19 CNS
[22] = system: SK-MEL-28 melanoma
[23] = system: HT29 colon
[24] = system: LXFL 529 NSCLC
[25] = system: OVCAR-3 ovarian
[26] = system: OVCAR-4 ovarian
[27] = system: SNB-78 CNS
[28] = system: DMS 114 small cell lung
[29] = system: SK-MEL-5 melanoma
[30] = system: CAKI-1 renal
[31] = system: SF-539 CNS
[32] = system: NCI-H460 lung
[33] = system: OVCAR-8 ovarian
[34] = system: KM20L2 colon
[35] = system: HL-60(TB) leukemia
[36] = system: ACHN renal
[37] = system: 786-0 renal
[38] = system: HCT-15 colon
[39] = system: KM12 colon
[40] = system: TK-10 renal
[41] = system: NCI-H226 lung
[42] = system: DMS 273 small cell lung
[43] = system: SW-620 colon
[44] = system: SF-268 CNS
[45] = system: M19-MEL melanoma
[46] = system: SF-295 CNS
[47] = system: COLO 205 colon
[48] = system: NCI-H522 lung
[49] = system: HOP-92 NSCLC
[50] = system: RPMI-8226 leukemia
[51] = system: HCT-116 colon
[52] = system: SR leukemia
[53] = system: DU-145 prostate
[54] = system: MDA-MB-435
[55] = system: HS 578T breast
[56] = system: MDA-N
[57] = system: T-47D breast
[58] = system: M14 melanoma
[59] = system: MALME-3M melanoma
[60] = system: HCC-2998 colon
[61] = system: OVCAR-5 ovarian
[62] = system: PC-3 prostate
[63] = system: MCF7 breast
[64] = system: MDA-MB-231 breast
[65] = system: BT-549 breast
[66] = system: NCI/ADR-RES ovarian

Measured: TGI

Cc1c2n(c(=O)[nH]c1=O)C1OC(CO)C(N=[N+]=[N-])C1O2 (stereo not drawn)
not listed: [53] | [54] | [55] | [56] | [57] | [58] | [59] | [60] | [61] | [62] | [63] | [64] | [65] | [66]
> 100 µM: all other assays above

CC1CC2CCCC(O)=C2C(=O)O1 (stereo not drawn)
> 64.8 µM: [21]
not listed: [10] | [24] | [27] | [28] | [34] | [42] | [45]
> 100 µM: all other assays above

COC(=O)/C=C\C(C#N)(C#N)N=Cc1ccc(C)cc1
31 µM: [14]
12.6 µM: [20]
6.53 µM: [30]
5.5 µM: [59]
35.3 µM: [60] | [39]
31.8 µM: [4]
> 27.9 µM: [43]
16.7 µM: [12]
43.1 µM: [21]
14 µM: [56]
27.7 µM: [6]
9.33 µM: [44]
30.1 µM: [64]
45.3 µM: [55]
28.4 µM: [15]
15.1 µM: [9]
19.8 µM: [22]
51 µM: [46]
29.8 µM: [16]
12.9 µM: [26]
7.16 µM: [13]
3.68 µM: [63]
26.9 µM: [29]
8.14 µM: [35]
15.7 µM: [53]
3.8 µM: [52]
3.57 µM: [51]
3.9 µM: [19]
2.1 µM: [1]
1.64 µM: [48]
34.2 µM: [17]
26.3 µM: [8]
21.5 µM: [41]
5.82 µM: [25]
6.12 µM: [33]
4.42 µM: [58]
11.2 µM: [65]
28.7 µM: [7]
34.3 µM: [5]
3.44 µM: [37]
6.04 µM: [36]
41.1 µM: [32]
18.7 µM: [23]
6.87 µM: [38]
5.01 µM: [54]
4.61 µM: [57]
3.65 µM: [40]
3.6 µM: [49]
37.8 µM: [61]
5.8 µM: [2]
3.77 µM: [3]
3.52 µM: [50]
10.9 µM: [31] | [66]
31.6 µM: [11]
15.2 µM: [62]
4.56 µM: [47]
32.1 µM: [18]

CCCCCCCCCCCCCCCCNc1cccc2ccccc12
not listed: [4] | [18] | [23] | [26] | [29] | [30] | [49] | [53] | [54] | [55] | [56] | [57] | [61] | [62] | [63] | [64] | [65] | [66]
> 100 µM: all other assays above

O=[N+]([O-])c1ccc2occ3c2c1CCC3
not listed: [30] | [34] | [53] | [54] | [55] | [56] | [57] | [62] | [63] | [64] | [65] | [66]
> 100 µM: all other assays above

NS(=O)(=O)c1ccc(N=Nc2c(O)c(C(=O)O)cc3ccccc23)cc1
65.9 µM: [59]
> 84.2 µM: [47]
> 96.1 µM: [52]
> 90.3 µM: [21]
not listed: [10] | [24] | [27] | [28] | [34] | [42] | [45]
> 100 µM: all other assays above

CC(C)(C)[Si](C)(C)OCC1OC(n2ccc(=O)[nH]c2=O)C(O[Si](C)(C)C(C)(C)C)/C1=C/C#N (stereo not drawn)
> 42.3 µM: [66]
> 71.5 µM: [22]
> 68.8 µM: [49]
32.5 µM: [16]
42.4 µM: [18]
11.9 µM: [19] | [29]
> 44 µM: [6] | [40]
9.83 µM: [47]
2.75 µM: [15]
> 60.5 µM: [36]
> 85.7 µM: [56]
> 81.4 µM: [46]
> 83.5 µM: [64]
> 47.7 µM: [23]
76.6 µM: [4]
> 51.2 µM: [2]
> 75.8 µM: [41]
> 64 µM: [31]
> 42.2 µM: [39]
> 38.7 µM: [54]
> 61.9 µM: [63]
98.2 µM: [30]
> 53.2 µM: [51]
> 21.1 µM: [3]
not listed: [10] | [12] | [24] | [27] | [28] | [34] | [35] | [42] | [45]
> 100 µM: all other assays above
